Measurements as given in patent US10792365B2, “Peptide derivative and use thereof” (Toray Industries, Inc., priority 2016, dated 2020).
Like-named read-outs stand apart in the source and are kept apart here.

Experiments:
L1210 cells [1] = type: cell-based, mouse; settings: 48 h
Experimental: (§1) The compound of Example 12 and the compound of Example 13 were measured for cytotoxicity thereof on SKOV-3 cells, A549 cells, and L1210 cells by using MTS method.
(§2) An evaluation method of the compound of Example 12 is as follows: To each cell culturing in a medium that is absent of folate, the compound of Example 12 was treated for two hours, and then the cells transferred to a fresh medium absent of the compound and continuously maintained and cultured for 48 hours. Surviving cells after 48 hours were counted by using MTS method.
as §2, with “13” for “12”, “six” for “two”
(§3) It has been reported that SKOV-3 cells and L1210 cells express folate acceptors in medium to high expression level on their cell surface. It has been reported that A549 cells express folate acceptors in low expression level or undetectable level on its cell surface (Analytical Biochemistry, (2005), 338: pp. 284-293; Molecular Cancer Therapeutics, (2015), 14: pp. 1605 to 13).

A549 cells [2] = type: cell-based, human; settings: 48 h
Experimental: as §1, §2
as §2, with “13” for “12”, “six” for “two”
as §3

SKOV-3 cells [3] = type: cell-based, human; settings: 48 h
Experimental: as §1, §2
as §2, with “13” for “12”, “six” for “two”
as §3

L1210 cells [4] = assay: In vitro cytotoxicity of the peptide derivative (I), MTS method, L1210 cells; type: cell-based, mouse; settings: Mus musculus
Excerpt: (§4) The cytotoxicity of the peptide derivative (I) or a pharmaceutically acceptable salt thereof, or the conjugate including the peptide derivative (I) or a pharmaceutically acceptable salt thereof can be evaluated with an in vitro study. Examples of the in vitro studies include the trypan blue dye exclusion method, the lactate dehydrogenase (LDH) activity assay, [^3H]thymidine incorporation method, or propidium iodide nuclear stain that each measures the number of dead cells or surviving cells post treated with the compound; a method using dyes such as MTT, MTS, and WST (Current Protocol in Toxicology, (2000), 2.6.1-2.6.27); or a method in which the amount of ATP is measured using CellTiter-Glow (Promega Corporation) and the like, and preferably include the method in which the number of surviving cells post treated with the compound is measured by using the MTS method to determine values of the cytotoxicity at that time from 50% effect-concentration (EC50). Furthermore, in the evaluation of the cytotoxicity of the conjugate including the peptide derivative (I) or a pharmaceutically acceptable salt thereof, preferred method is the one that for a certain time, cells are treated with a medium containing the compound, the cells are then transferred to a medium not containing the compound, and the number of surviving cells are measured after cultivation for additional certain time (Bioconjugate Chemistry., 2014; 25: pp. 560-568). For the in vitro studies, human ovarian cancer cell SKOV-3 cells, human alveolar basement epithelial gland cancer cell A549 cells, mouse lymphocytic leukocyte L1210 cells and the like are used.

SKOV-3 cells [5] = assay: In vitro cytotoxicity of the peptide derivative (I), MTS method, SKOV-3 cells; type: cell-based, human; settings: Homo sapiens, SK-OV-3
Excerpt: as §4

[6] = Parallel Artificial Membrane Permeation Assay (PAMPA), Pre-coated PAMPA Plate System (Corning)
Experimental: Reference Example 14, the Compound of Reference Example 16, and the Compound of Comparative Example was Evaluated by Using Pre-Coated PAMPA PlateSystem (Corning)
A frozen-stored, Pre-coated PAMPA Plate System was allowed to stand at room temperature for thirty minutes or more. Subsequently, 320 μL of the standard solution was added to a Donor side plate of Pre-coated PAMPA Plate System, and 200 μL of the PBS containing 20% of methanol was added to an Acceptor side plate. Both of the plates were set for the system, and the plates allowed to stand at room temperature for five hours. The reaction liquid in each well of the Donor side and Acceptor side plates was subjected to LC/MS analysis (hereinafter, LC/MS-3), and the concentration of the compounds in each well calculated.
Using the obtained concentration of the compounds in the reaction liquid in each well, the membrane permeability coefficients (Pe) (cm/s) were calculated by the following formula: Cequilibrium=[…] Pe=[−ln(1−CA/Cequilibrium)]/S×(1/VD+1/VA)×t Cequilibrium: Equilibrium concentration of the wells in the Donor side and Acceptor side plates CD: Concentration after five hours of the wells in the Donor side plate (mmol/L) VD: Volume of the standard solution added to the wells in the Donor side plate (0.32 mL) CA: Concentration after five hours of the wells in the Acceptor side plate (mmol/L) VA: Volume of the PBS containing 20% of methanol added to the wells in the Acceptor side plate (0.2 mL) S: Surface of the membrane (0.3 cm^2) t: Standing time 18,000 s (=5 hrs).

A549 cells [7] = assay: In vitro cytotoxicity of the peptide derivative (I), MTS method, A549 cells; type: cell-based, human; settings: Homo sapiens
Excerpt: as §4

Row | Compound | EC50 (L1210 cells [1]) | EC50 (A549 cells [2]) | EC50 (SKOV-3 cells [3]) | EC50 (L1210 cells [4]) | EC50 (SKOV-3 cells [5]) | Membrane Permeability Coefficient ([6]; 200 μmol/L in PBS containing 20% of methanol, room temperature, five hours, N.D. = Acceptor side concentration less than lower limit of determinate quantity) | EC50 (A549 cells [7]) | Papp at 5 h, 200 μmol/L [6]
1 | CC[C@H](C)C([C@@H](CC(=O)N1CCC[C@H]1[C@H](OC)[C@@H](C)C(=O)N[C@@H](Cc1ccccc1)c1nc(C(=O)N(C)CCSSCCN(C)C(=O)CCOCCOCCOCCOCCOCCOCCOCCOCCOCCOCCOCCOCCNC(=O)CCN2C(=O)CC(SCCNC(=O)[C@H](CCC(=O)O)NC(=O)CC[C@H](NC(=O)c3ccc(NCc4c[nH]c5nc(N)nc(=O)c-5n4)cc3)C(=O)O)C2=O)cs1)OC)N(C)C(=O)[C@@H](NC(=O)[C@H](C(C)C)N(C)C)C(C)C (stereo in doubt) [Example 13] | 36 nM | > 300 nM | 19.4 nM |  |  |  |  | 
2 | CC[C@H](C)[C@@H]([C@@H](CC(=O)N1CCC[C@H]1[C@H](OC)[C@@H](C)C(=O)N[C@@H](Cc1ccccc1)c1nc(C(=O)O)cs1)OC)N(C)C(=O)[C@@H](NC(=O)[C@H](C(C)C)N(C)C)C(C)C [Reference Example 1, 2-((S)-1-((2R,3R)-3-((S)-1-((3R,4S,5S)-4-((S)-2-((S)-2-(dimethylamino)-3-methylbutanamido)-N,3-dimethylbutanamido)-3-methoxy-5-methylheptanoyl)pyrrolidin-2-yl)-3-methoxy-2-methylpropanamido)-2-phenylethyl)thiazole-4-carboxylic acid, reference compound] |  |  |  | > 50 nM | > 10 nM | 0.01 10^−6 cm/s | > 10 nM | 
3 | CC[C@H](C)[C@@H]([C@@H](CC(=O)N1CCC[C@H]1[C@H](OC)[C@@H](C)C(=O)N[C@@H](Cc1ccccc1)c1nc(C(=O)NCCS)cs1)OC)N(C)C(=O)[C@@H](NC(=O)[C@H](C(C)C)N(C)C)C(C)C [Example 1] |  |  |  | 31.4 nM | 0.44 nM |  | 1.93 nM | 1.15 ×10⁻⁶ cm/s
4 | CC[C@H](C)[C@@H]([C@@H](CC(=O)N1CCC[C@H]1[C@H](OC)[C@@H](C)C(=O)N[C@@H](Cc1ccccc1)c1nc(C(=O)N(C)CCO)cs1)OC)N(C)C(=O)[C@@H](NC(=O)[C@H](C(C)C)N(C)C)C(C)C [Example 9] |  |  |  | 8.52 nM | 1.5 nM |  | 1.64 nM | 0.08 ×10⁻⁶ cm/s
